Assay results published in patent US9439906B2, “Dosing regimen associated with long acting injectable paliperidone esters” (Janssen Pharmaceutica NV, priority 2007, dated 2016).

Experiments:
[1] = Pharmacokinetic profile of gluteal versus deltoid i.m. injections of paliperidone palmitate 100 mg-eq. (four injections); type: in vivo, human
Protocol: This study was performed to characterize and compare the pharmacokinetic profile of paliperidone palmitate (formulated as described above) following four intramuscular injections in the deltoid or gluteal muscle.
Plasma samples for pharmacokinetic analyses were collected.

[2] = Safety in phase 3 placebo-controlled study R092670-PSY-3007; type: in vivo, human; settings: for average increase in body weight: placebo −0.2 kg; for Akathisia (EPS-related adverse event): placebo 4.9%; for mean change in BMI from baseline to end point: placebo −0.1
Protocol: Safety was monitored by the evaluation of adverse events, extrapyramidal symptom (EPS) rating scales (Abnormal Involuntary Movement Scale [AIMS], Barnes Akathisia Rating Scale [BARS], Simpson and Angus Rating Scale [SAS]) scores, clinical laboratory test results, vital signs measurements, electrocardiograms (ECGs), and physical examination findings. In addition, the tolerability of injections was assessed; the investigators evaluated injection sites and the subjects assessed injection pain.
The number and percentage of subjects with treatment-emergent adverse events were summarized. Adverse events of potential clinical interest were summarized separately, including events related to EPS or changes in serum glucose or prolactin levels.
Changes from baseline in clinical laboratory tests, vital sign measurements, ECGs, body weight, BMI, and EPS scale scores were summarized by treatment group. Prolactin levels were summarized by sex. Subjects with potentially abnormal values or changes in clinical laboratory tests, vital signs, orthostatic parameters, and ECG parameters were summarized based on predefined criteria. Frequency distributions were presented for the investigator's evaluation of the injection site, and descriptive statistics were presented for VAS scores corresponding to the subject's evaluation of injection pain.

[3] = Treatment-emergent adverse events in the single-dose dose-proportionality study; settings: single dose 25-150 mg-eq.
Source text: The subjects were assigned into eight treatment groups: paliperidone palmitate 25 (n=48), 50 (n=50), 100 (n=51) or 150 (n=52) mg-eq. injected into either the deltoid or gluteal muscle.

[4] = tested on: subjects with schizophrenia; assay: Efficacy in phase 3 placebo-controlled study R092670-PSY-3007 (PANSS, PSP, CGI-S); type: in vivo, human; settings: for PANSS Total Score End point Mean (SD): LOCF; for PANSS Total Score Change from Baseline Mean (SD): end point LOCF, placebo −2.9; for mean improvement in the PSP score from baseline to end point: placebo 1.7; for subjects who achieved responder status (30% or larger decrease on PANSS total scores): placebo 20.0%
Source text: The study included a screening period of up to 7 days and a 13-week double-blind treatment period. The screening period included a washout of disallowed psychotropic medications. […] Subjects who had source documentation of previous exposure to the above medications and were currently taking another antipsychotic regimen continued their current treatment through Day-1. At the beginning of the double-blind treatment period, subjects were randomly assigned in a 1:1:1:1 ratio to 1 of 4 treatment groups: placebo or paliperidone palmitate 25 mg eq., 100 mg eq., or 150 mg eq. Study medication was administered as 4 doses: an initial i.m. injection of 150 mg eq. of paliperidone palmitate or placebo followed by 3 fixed i.m. doses of placebo or paliperidone palmitate [25, 100, or 150 mg eq.] on Days 8, 36, and 64. The initial injection of study medication was given in the deltoid muscle. Subsequent injections were given either in the deltoid or gluteal muscle at the discretion of the investigator. Randomized subjects were to remain in the study for 28 days after the last injection on Day 64 with the end of study visit scheduled for Day 92 during the double-blind period. The entire study, including the screening period, lasted approximately 14 weeks. Samples for pharmacokinetic (PK) evaluation were collected on Day 1, prior to the first injection and on Days 2, 4, 6, 8, 15, 22, 36, 64 and 92. Efficacy and safety were evaluated regularly throughout the study. A pharmacogenomic blood sample (10 mL) was collected from subjects who gave separate written informed consent for this part of the study. Participation in the pharmacogenomic research was optional. Approximately 105 to 115 mL of whole blood was collected during the study. The primary endpoint was the change in the PANSS total score from baseline (i.e., the start of double-blind treatment, Day 1) to the end of the double-blind treatment period (i.e., Day 92 or the last post baseline assessment). The key secondary efficacy endpoint was the change in the Personal and Social Performance Scale (PSP) from baseline to the end of the double-blind treatment period. The other secondary efficacy endpoint was the change in the Clinical Global Impression-Severity (CGI-S) scores from baseline to the end of the double-blind treatment period. Other endpoints included the change from baseline in subject ratings of sleep quality and daytime drowsiness using a visual analogue scale (VAS), the onset of therapeutic effect, responder rate, and the change from baseline to end point in PANSS subscales and […] factors. All randomized subjects who received at least 1 dose of double-blind study drug and had both baseline and at least one post baseline efficacy measurement (PANSS, PSP, or CGI-S) during the double-blind treatment period were included in the intent-to-treat efficacy analyses. […] This procedure is referred to as the Dunnett-Bonferroni-based parallel gatekeeping procedure. The change from baseline in PANSS total score at each visit and at end point was analyzed using an analysis of covariance (ANCOVA) model. The last observation carried forward (LOCF) method was used. The model included treatment and country as factors and baseline PANSS total score as a covariate. Treatment effect was based on the difference in least-squares mean change. […] Treatment-by-country and treatment-by-baseline PANSS total score interactions were explored using the same ANCOVA model as the one for the analysis of the primary endpoint. If either term was statistically significant at the predefined 2-sided significance level of 0.10, further evaluations of the effect of other covariates were to be performed to assess the nature of the interaction and identify possible causes. […] The analysis of the key secondary endpoint, change in PSP score at end point, was conducted by means of an ANCOVA model with treatment and country as factors and the baseline score as the covariate. […]

CCCCCCCCCCCCCCCC(=O)OC1CCCn2c1nc(C)c(CCN1CCC(c3noc4cc(F)ccc34)CC1)c2=O (racemic) [paliperidone palmitate, (±)-3-[2-[4-(6-fluoro-1,2-benzisoxazol-3-yl)-1-piperidinyl]ethyl]-6,7,8,9-tetrahydro-2-methyl-4-oxo-4H-pyrido[1,2-α]pyrimidin-9-yl hexadecanoate]
median AUC∞, deltoid versus gluteal ([1]; after four injections): similar
Relative exposure after the fourth injection versus after the second injection ([1]; both deltoid and gluteal): slightly lower
1 or more serious TEAE, (%) ([2]; 25 mg eq. group (N = 160)): (9.4) %
Possibly related TEAE, (%) ([2]; 25 mg eq. group (N = 160)): (28.1) %
TEAE leading to permanent stop, (%) ([2]; 25 mg eq. group (N = 160)): (6.3) %
TEAE, (%) ([2]; 25 mg eq. group (N = 160)): (63.1) %
average increase in body weight ([2]; 25 mg eq. group, 13 weeks): 0.4 kg
Akathisia (EPS-related adverse event) ([2]; 25 mg eq. group): 1.3%
mean change in BMI from baseline to end point ([2]; 25 mg eq. group): 0.1 kg/m^2
1 or more serious TEAE, (%) ([2]; 100 mg eq. group (N = 165)): (13.3) %
Possibly related TEAE, (%) ([2]; 100 mg eq. group (N = 165)): (29.7) %
TEAE leading to permanent stop, (%) ([2]; 100 mg eq. group (N = 165)): (6.1) %
TEAE, (%) ([2]; 100 mg eq. group (N = 165)): (60.0) %
average increase in body weight ([2]; 100 mg eq. group, 13 weeks): 0.7 kg
Akathisia (EPS-related adverse event) ([2]; 100 mg eq. group): 4.8%
mean change in BMI from baseline to end point ([2]; 100 mg eq. group): 0.3 kg/m^2
tolerability ([2]; 150 mg eq. deltoid then 25, 100 or 150 mg eq. Days 8, 36, 64, 13 weeks): generally well tolerated
1 or more serious TEAE, (%) ([2]; 150 mg eq. group (N = 163)): 8.0%
Possibly related TEAE, (%) ([2]; 150 mg eq. group (N = 163)): 31.3%
TEAE leading to death, (%) ([2]; 150 mg eq. group (N = 163)): 0.6%
TEAE leading to permanent stop, (%) ([2]; 150 mg eq. group (N = 163)): 8.0%
TEAE, (%) ([2]; 150 mg eq. group (N = 163)): 63.2%
average increase in body weight ([2]; 150 mg eq. group, 13 weeks): 1.4 kg
Akathisia (EPS-related adverse event) ([2]; 150 mg eq. group): 5.5%
mean change in BMI from baseline to end point ([2]; 150 mg eq. group): 0.5 kg/m^2
Local injection site tolerability ([2]; all dose groups): good
incidence of treatment-emergent EPS-related adverse events ([2]; all dose groups): low and comparable to placebo
ECG: clinically significant QTc prolongation ([2]; doses up to 150 mg eq.): did not demonstrate evidence of clinically significant QTc prolongation
subjects with maximum QTcLD value >480 ms or maximal change in QTcLD >60 ms ([2]; during the study): No subject
subjects with weight increase of at least 7% relative to baseline ([2]; highest dose (150 mg eq.), placebo 5%): 13%
prolactin levels ([2]; versus placebo, largest increase in the 150 mg eq. group): increases in prolactin levels were observed with greater frequency
Treatment-emergent AE: headache [3]: 7%
Treatment-emergent AE: insomnia [3]: 5%
Treatment-emergent AE: schizophrenia [3]: 6%
Treatment-emergent AE: tachycardia [3]: 10%
deaths [3]: No deaths
subjects discontinued due to TEAs [3]: 2%
earliest time point of statistically significant improvement over placebo in change in PANSS total score ([4]; 25 mg eq. and 150 mg eq. groups): Day 8
PANSS Total Score change, Diff of LS Means (SE) versus placebo ([4]; 25 mg eq. group): −5.1 (2.01)
PANSS Total Score End point Mean (SD) ([4]; 25 mg eq. group (150 mg eq. Day 1, then 25 mg eq. Days 8, 36, 64)): 78.8 (19.88)
PANSS Total Score Change from Baseline Mean (SD) ([4]; 25 mg eq. group): −8.0 (19.90)
mean improvement in the PSP score from baseline to end point ([4]; 25 mg eq. group): 2.9
subjects who achieved responder status (30% or larger decrease on PANSS total scores) ([4]; 25 mg eq. group): 33.5%
PANSS Total Score change, Diff of LS Means (SE) versus placebo ([4]; 100 mg eq. group): −8.7 (2.00)
PANSS Total Score End point Mean (SD) ([4]; 100 mg eq. group (150 mg eq. Day 1, then 100 mg eq. Days 8, 36, 64)): 74.6 (18.06)
PANSS Total Score Change from Baseline Mean (SD) ([4]; 100 mg eq. group): −11.6 (17.63)
mean improvement in the PSP score from baseline to end point ([4]; 100 mg eq. group): 6.1
subjects who achieved responder status (30% or larger decrease on PANSS total scores) ([4]; 100 mg eq. group): 41.0%
PANSS Total Score change, Diff of LS Means (SE) versus placebo ([4]; 150 mg eq. group): −9.8 (2.00)
PANSS Total Score End point Mean (SD) ([4]; 150 mg eq. group (150 mg eq. Days 1, 8, 36, 64)): 75.2 (18.59)
PANSS Total Score Change from Baseline Mean (SD) ([4]; 150 mg eq. group): −13.2 (18.48)
mean improvement in the PSP score from baseline to end point ([4]; 150 mg eq. group): 8.3
subjects who achieved responder status (30% or larger decrease on PANSS total scores) ([4]; 150 mg eq. group): 40.0%
time point as of which improvement over placebo in change in PANSS total score was statistically significant ([4]; all 3 dose groups): Day 22
